A short description of series [1]: Solubility of CNP compounds at pH 4.0 and pH 6.5. It is filed as physicochemical. In outline:
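Freeze-dried peptide was brought to a nominal ≥4000-5000 nmol/mL in 5 mM sodium acetate, 250 mM glycerol (pH 4.0) or in 8 mM sodium phosphate, 23 mg/mL glycerol (pH 6.5 via NaOH titration). Samples were equilibrated at room temperature overnight if undissolved, and supernatant concentration was measured by CAD.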

Series [2] concerns the target T1, human natriuretic peptide receptor 2 (hNPR2) (Homo sapiens, UniProt P20594).
T1 construct: expressed in transfected cells; host or cells: HEK293 (ATCC CRL-1573), clone 35, co-transfected with pGloSensor-42F
T1 sequence (P20594 23-1047): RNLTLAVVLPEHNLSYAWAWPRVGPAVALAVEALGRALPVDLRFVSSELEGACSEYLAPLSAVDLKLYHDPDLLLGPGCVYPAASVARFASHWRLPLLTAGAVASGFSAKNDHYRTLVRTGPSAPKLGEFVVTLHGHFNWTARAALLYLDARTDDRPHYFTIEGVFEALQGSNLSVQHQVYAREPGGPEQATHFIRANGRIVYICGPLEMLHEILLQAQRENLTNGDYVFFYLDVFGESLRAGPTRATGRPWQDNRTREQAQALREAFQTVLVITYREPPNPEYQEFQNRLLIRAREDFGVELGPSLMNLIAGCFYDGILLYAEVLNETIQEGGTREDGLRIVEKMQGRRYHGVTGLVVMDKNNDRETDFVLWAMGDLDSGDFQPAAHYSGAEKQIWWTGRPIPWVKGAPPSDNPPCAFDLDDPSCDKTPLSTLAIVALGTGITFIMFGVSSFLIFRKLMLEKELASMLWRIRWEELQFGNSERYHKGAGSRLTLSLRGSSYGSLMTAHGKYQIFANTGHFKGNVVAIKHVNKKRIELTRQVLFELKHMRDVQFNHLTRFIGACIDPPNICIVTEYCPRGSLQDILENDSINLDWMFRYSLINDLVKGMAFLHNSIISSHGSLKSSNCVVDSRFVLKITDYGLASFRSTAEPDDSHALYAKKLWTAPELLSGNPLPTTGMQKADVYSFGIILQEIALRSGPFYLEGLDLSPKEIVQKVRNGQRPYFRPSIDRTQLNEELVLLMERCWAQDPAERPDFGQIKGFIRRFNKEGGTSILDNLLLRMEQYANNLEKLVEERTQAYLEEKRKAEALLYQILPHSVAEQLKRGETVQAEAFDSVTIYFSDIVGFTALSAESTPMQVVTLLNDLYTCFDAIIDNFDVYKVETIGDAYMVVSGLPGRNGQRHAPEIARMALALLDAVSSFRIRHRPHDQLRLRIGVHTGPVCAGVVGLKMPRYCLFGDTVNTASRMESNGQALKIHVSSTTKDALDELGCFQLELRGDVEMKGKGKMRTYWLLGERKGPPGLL
Kind of series: In vitro hNPR2 activity assay (cGMP GloSensor reporter, HEK293). To be noted: for hNPR2 0% HSA. [EC50% rel CNP]: potency relative to CNP22 (0065). Type of series: cell-based. In outline: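 Potency is the EC50 from a four-parameter logistic fit, also expressed relative to the in-plate CNP22 control (×100), with at least two replicates. Compounds (ten concentrations, […], HSA-free diluent with 1% OVA, 0.01% Tween20) were incubated 30 min at 37 °C on HEK293 cells co-expressing hNPR2 and a GloSensor cGMP luciferase. Luminescence detected with Bright-Glo.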

Setting [3] is: 5 mM sodium acetate, 250 mM glycerol, pH 4.0, room temperature, read-out: Solubility at pH 4.0.
Setting [4] is: 8 mM sodium phosphate, 23 mg/mL glycerol, pH 6.5, room temperature, read-out: Solubility at pH 6.5.

In brackets after ≈: the same amount, converted by molar mass. Where two headings read alike, the source gives them in different places. Starred links: 1 amine or outer side, 2 acyl side, 3 side chain; linkers in the order of their positions; H or OH if unused. Positions of bridges follow the written chain, without caps; N, C: chain ends. Residues, ends and D or L forms follow the SMILES beside them. *: point of attachment. C18 diacid = O=C(O)CCCCCCCCCCCCCCCCC(=O)*; γGlu = O=C(O)[C@H](CCC(=O)[*:2])N[*:1]; AEEA = NCCOCCOCC(=O)O

For orientation: solubility means the dissolved amount per volume that the medium holds. Take `CC[C@H](C)[C@@H]1NC(=O)[C@H](CCCNC(=N)N)NC(=O)[C@H](CC(=O)O)NC(=O)[C@H](CC(C)C)NC(=O)[C@@H]2CCCN2C(=O)[C@H](CC(C)C)NC(=O)CNC(=O)[C@H](Cc2ccccc2)NC(=O)[C@@H](NC(=O)CNC(=O)[C@H](CCC(N)=O)NC(=O)[C@H](CO)NC(=O)CNC(=O)CNC(=O)[C@H](CCCCN)NC(=O)[C@H](CCCCN)NC(=O)[C@H](CCC(N)=O)NC(=O)[C@H](C)NC(=O)CNC(=O)[C@H](CCCCN)NC(=O)[C@H](Cc2ccc(O)cc2)NC(=O)COCCOCCNC(=O)COCCOCCNC(=O)COCCOCCNC(=O)COCCOCCNC(=O)CC[C@H](NC(=O)CC[C@H](NC(=O)CCCCCCCCCCCCCCCCC(=O)O)C(=O)O)C(=O)O)CSSC[C@@H](C(=O)O)NC(=O)CNC(=O)[C@H](CC(C)C)NC(=O)CNC(=O)[C@H](CO)NC(=O)[C@H](CC(C)C)NC(=O)[C@H](CO)NC(=O)CNC1=O` [compound 9435] ({C18 diacid-γGlu-γGlu-AEEA-AEEA-AEEA-AEEA}-YKGAQKKGGSQGCFGLPLDRIGSLSGLGC-OH; disulfide 13-29; C-terminus assumed): the solubility in series [1] (setting [3]) was found to be 7.42 mM (≈ 29.9 mg/mL); in series [1] (setting [4]), 2.36 mM (≈ 9.5 mg/mL). Besides, the “hNPR2 0% HSA. [EC50% rel CNP]” value in series [2] is 73.6%.

For the molecule `CC[C@H](C)[C@@H]1NC(=O)[C@H](CCCNC(=N)N)NC(=O)[C@H](CC(=O)O)NC(=O)[C@H](CC(C)C)NC(=O)[C@@H]2CCCN2C(=O)[C@H](CC(C)C)NC(=O)CNC(=O)[C@H](Cc2ccccc2)NC(=O)[C@@H](NC(=O)CNC(=O)[C@H](CCC(N)=O)NC(=O)[C@H](CO)NC(=O)[C@H](CC(C)C)NC(=O)CNC(=O)[C@H](CCCCN)NC(=O)[C@H](CCCCN)NC(=O)[C@H](CCC(N)=O)NC(=O)[C@H](C)NC(=O)CNC(=O)[C@H](CCCCN)NC(=O)[C@H](Cc2ccc(O)cc2)NC(=O)COCCOCCNC(=O)COCCOCCNC(=O)COCCOCCNC(=O)COCCOCCNC(=O)CC[C@H](NC(=O)CC[C@H](NC(=O)CC[C@H](NC(=O)CCCCCCCCCCCCCCCCC(=O)O)C(=O)O)C(=O)O)C(=O)O)CSSC[C@@H](C(=O)O)NC(=O)CNC(=O)[C@H](CC(C)C)NC(=O)CNC(=O)[C@H](CO)NC(=O)[C@H](CC(C)C)NC(=O)[C@H](CO)NC(=O)CNC1=O` [compound 9480] ({C18 diacid-γGlu-γGlu-γGlu-AEEA-AEEA-AEEA-AEEA}-YKGAQKKGLSQGCFGLPLDRIGSLSGLGC-OH; disulfide 13-29), the solubility in series [1] (setting [3]) came to 0.023 mM (≈ 0.097 mg/mL); in series [1] (setting [4]), 6.17 mM (≈ 26 mg/mL). The “hNPR2 0% HSA. [EC50% rel CNP]” value in series [2] amounted to 45.2%.

On to `CC[C@H](C)[C@@H]1NC(=O)[C@H](CCCNC(=N)N)NC(=O)[C@H](CC(=O)O)NC(=O)[C@H](CC(C)C)NC(=O)[C@@H]2CCCN2C(=O)[C@H](CC(C)C)NC(=O)CNC(=O)[C@H](Cc2ccccc2)NC(=O)[C@@H](NC(=O)CNC(=O)[C@H](CO)NC(=O)[C@H](CO)NC(=O)[C@H](CC(C)C)NC(=O)CNC(=O)[C@H](CCCCN)NC(=O)[C@H](CCCCN)NC(=O)[C@H](CCC(N)=O)NC(=O)[C@H](C)NC(=O)CNC(=O)[C@H](CCCCN)NC(=O)[C@H](Cc2ccc(O)cc2)NC(=O)[C@H](CCCCN)NC(=O)[C@H](CCCNC(=N)N)NC(=O)[C@H](C)NC(=O)[C@H](CCC(N)=O)NC(=O)[C@@H]2CCCN2C(=O)[C@H](Cc2c[nH]cn2)NC(=O)[C@H](CCC(=O)O)NC(=O)[C@H](CCC(N)=O)NC(=O)CC[C@H](NC(=O)CC[C@H](NC(=O)CC[C@H](NC(=O)CC[C@H](NC(=O)CC[C@H](NC(=O)CCCCCCCCCCCCCCCCC(=O)O)C(=O)O)C(=O)O)C(=O)O)C(=O)O)C(=O)O)CSSC[C@@H](C(=O)O)NC(=O)CNC(=O)[C@H](CC(C)C)NC(=O)CNC(=O)[C@H](CO)NC(=O)[C@H](CC(C)C)NC(=O)[C@H](CO)NC(=O)CNC1=O` [compound 9482] ({C18 diacid-γGlu-γGlu-γGlu-γGlu-γGlu}-QEHPQARKYKGAQKKGLSSGCFGLPLDRIGSLSGLGC-OH; disulfide 21-37), for which the figures for the solubility in series [1] (setting [3]) and in series [1] (setting [4]) were 0.099 mM (≈ 0.478 mg/mL) and 5.32 mM (≈ 25.7 mg/mL), respectively. The “hNPR2 0% HSA. [EC50% rel CNP]” value in series [2] is given as 39.4%.

Broadly, the EC50 is the concentration needed to bring the measured effect to its halfway point. Low values mean an effect from little substance, high ones a need for much substance. Turning to `CC[C@H](C)[C@@H]1NC(=O)[C@H](CCCNC(=N)N)NC(=O)[C@H](CCC(=O)O)NC(=O)[C@H](CC(C)C)NC(=O)[C@@H]2CCCN2C(=O)[C@H](CC(C)C)NC(=O)CNC(=O)[C@H](Cc2ccccc2)NC(=O)[C@@H](NC(=O)CNC(=O)[C@H](CO)NC(=O)[C@H](CO)NC(=O)[C@H](CC(C)C)NC(=O)CNC(=O)[C@H](CCCCN)NC(=O)[C@H](CCCCN)NC(=O)[C@H](CCC(N)=O)NC(=O)[C@H](C)NC(=O)CNC(=O)[C@H](CCCCN)NC(=O)[C@H](Cc2ccc(O)cc2)NC(=O)[C@H](CCCCN)NC(=O)[C@H](CCCNC(=N)N)NC(=O)[C@H](C)NC(=O)[C@H](CCC(N)=O)NC(=O)[C@@H]2CCCN2C(=O)[C@H](Cc2c[nH]cn2)NC(=O)[C@H](CCC(=O)O)NC(=O)[C@H](CCC(N)=O)NC(=O)CC[C@H](NC(=O)CC[C@H](NC(=O)CC[C@H](NC(=O)CC[C@H](NC(=O)CCCCCCCCCCCCCCCCC(=O)O)C(=O)O)C(=O)O)C(=O)O)C(=O)O)CSSC[C@@H](C(=O)O)NC(=O)CNC(=O)[C@H](CC(C)C)NC(=O)CNC(=O)[C@H](CO)NC(=O)[C@H](CC(C)C)NC(=O)[C@H](CO)NC(=O)CNC1=O` [compound 9483] ({C18 diacid-γGlu-γGlu-γGlu-γGlu}-QEHPQARKYKGAQKKGLSSGCFGLPLERIGSLSGLGC-OH; disulfide 21-37), in series [1] (pH 4), the concentration in solution (solubility) came to 4.96 mM (≈ 23.4 mg/mL). This molecule also had an EC50 in series [2] (0% HSA, HEK293-hNPR2/GloSensor cells) of 0.3 nM. Further, the “hNPR2 0% HSA. [EC50% rel CNP]” value in series [2] worked out at 10.2%.

The record behind these values is patent publication US20240209028A1, “CNP COMPOUNDS” (priority 2022, published 2024).
